Source: patent US9403823B2, “Protein kinase inhibitors” (ORIBASE PHARMA, priority 2012, dated 2016)
Read-outs that look alike come from different tables or passages of the source.

Columns and labels:
[1] = test system: H1975 cell line; test: In vitro cell proliferation assay (MTT), H1975; assay type: cell-based; details: Homo sapiens, read-out: EC50, anti-proliferative activity
Experimental: (§1) 2) In Vitro Cell Proliferation Assays (Table 22 to Table 35)
(§2) Cancer cell lines (5×10^3 cells per well) or HUVEC (1×10^4 cells per well) or HRMEC (1×10^4 cells per well) were distributed in 96-well plates and incubating in duplicate with escalating concentrations (10 nM to 3 μM) of compounds for 72 hr. Cell proliferation was measured using MTT (3[4,5-dimethylthiazol-2-yl]-2,5-diphenyltetrazolium bromide).

[2] = test system: HuH7 cell line; test: In vitro cell proliferation assay (MTT), HuH7; assay type: cell-based; details: Homo sapiens, read-out: EC50, anti-proliferative activity
Experimental: as §1, §2

[3] = molecular target: T1, FGFR2 (Homo sapiens, UniProt P21802); test: In vitro kinase assay (Z'-LYTE), FGFR2; assay type: biochemical; details: read-out: % of inhibition of the kinase compared to the control
T1 construct: purchased Invitrogen
Procedure, shortened: (§3)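 FRET-based Z'-LYTE coupled-enzyme assay: kinase phosphorylates a dual-fluorophore peptide, unphosphorylated peptide is protease-cleaved, and donor/acceptor emission ratio after 400 nm excitation quantifies progress. Buffer 50 mM HEPES pH 7.5, 10 mM MgCl2, 1 mM EGTA, 0.01% BRIJ-35; 1% DMSO final. Single compound concentration: 100 nM, or 10 μM for ABL and ABL T315I.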

[4] = test system: HuH6 Clone 5 cell line; test: In vitro cell proliferation assay (MTT), HuH6 Clone 5; assay type: cell-based; details: read-out: EC50, anti-proliferative activity
Experimental: as §1, §2

[5] = molecular target: T2, BRAF (Homo sapiens, UniProt P15056); test: In vitro kinase assay (Z'-LYTE), BRAF; assay type: biochemical; details: read-out: % of inhibition of the kinase compared to the control
T2 construct: purchased Invitrogen
Procedure, shortened: as §3

[6] = molecular target: T3, EGFR (ErbB1) T790M L858R (Homo sapiens, UniProt P00533, L858R/T790M); test: In vitro kinase assay (Z'-LYTE), EGFR (ErbB1) T790M L858R; assay type: biochemical; details: read-out: % of inhibition of the kinase compared to the control
T3 construct: purchased Invitrogen
Experimental: 1) In Vitro Kinase Assays (Table 10 to Table 21)
The inhibitory activity of the compounds on several kinases including BRAF, EGFR (ErbB1), EGFR (ErbB1) T790M L858R, FGFR2, KDR (VEGFR2), PDGFRA (PDGFR alpha), SRC and other was evaluated by Invitrogen using the Z′-LYTE® technology. Briefly, the Z′-LYTE® biochemical assay employs a fluorescence-based, coupled-enzyme format and is based on the differential sensitivity of phosphorylated and non-phosphorylated peptides to proteolytic cleavage. The peptide substrate is labeled with two fluorophores—one at each end—that make up a FRET pair. A ratiometric method, which calculates the ratio (the Emission Ratio) of donor emission to acceptor emission after excitation of the donor fluorophore at 400 nm, is used to quantitate reaction progress.
The compounds are screened in 1% DMSO (final) in the well. For 10 point titrations, 3-fold serial dilutions are conducted from the starting concentration. All Peptide/Kinase Mixtures are diluted to a 2× working concentration in the appropriate Kinase Buffer. All ATP Solutions are diluted to a 4× working concentration in Kinase Buffer (50 mM HEPES pH 7.5, 0.01% BRIJ-35, 10 mM MgCl2, 1 mM EGTA). ATP Km apparent is previously determined using a Z′-LYTE® assay.
Each compound was incubated at a concentration of 100 nM (excepted to test the activity against ABL and ABL T315I for which the compounds were incubated at a concentration of 10 μM) and the tables 10 to 21 summarize the results obtained showing the inhibitory power of a compound.

[7] = test system: HepG2 cell line; test: In vitro cell proliferation assay (MTT), HepG2; assay type: cell-based; details: Homo sapiens, read-out: EC50, anti-proliferative activity
Procedure, shortened: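 Cancer cell lines were seeded at 5×10^3 cells per well and HRMEC at 1×10^4 cells per well, then incubated in duplicate with escalating compound concentrations (10 nM to 3 μM) for 72 hr. Proliferation was read by MTT.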

[8] = molecular target: T4, SRC (Homo sapiens, UniProt P12931); test: In vitro kinase assay (Z'-LYTE), SRC; assay type: biochemical; details: read-out: % of inhibition of the kinase compared to the control
T4 construct: purchased Invitrogen
Procedure, shortened: as §3

[9] = test system: HT29 cell line; test: In vitro cell proliferation assay (MTT), HT29; assay type: cell-based; details: Homo sapiens, read-out: EC50, anti-proliferative activity
Experimental: as §1, §2

[10] = molecular target: T5, KDR (VEGFR2) (Homo sapiens, UniProt P35968); test: In vitro kinase assay (Z'-LYTE), KDR (VEGFR2); assay type: biochemical; details: read-out: % of inhibition of the kinase compared to the control
T5 construct: purchased Invitrogen
Procedure, shortened: as §3

[11] = test system: A549 cell line; test: In vitro cell proliferation assay (MTT), A549; assay type: cell-based; details: Homo sapiens, read-out: EC50, anti-proliferative activity
Experimental: as §1, §2

[12] = molecular target: T6, EGFR (ErbB1) (Homo sapiens, UniProt P00533); test: In vitro kinase assay (Z'-LYTE), EGFR (ErbB1); assay type: biochemical; details: read-out: % of inhibition of the kinase compared to the control
T6 construct: purchased Invitrogen
Procedure, shortened: as §3

[13] = test system: HuCCT1 cell line; test: In vitro cell proliferation assay (MTT), HuCCT1; assay type: cell-based; details: Homo sapiens, read-out: EC50, anti-proliferative activity
Experimental: as §1, §2

[14] = molecular target: T7, PDGFRA (PDGFR alpha) (Homo sapiens, UniProt P16234); test: In vitro kinase assay (Z'-LYTE), PDGFRA; assay type: biochemical; details: read-out: % of inhibition of the kinase compared to the control
T7 construct: purchased Invitrogen
Procedure, shortened: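 Inhibition read as emission ratio (donor/acceptor, 400 nm excitation) of a FRET-labelled peptide, phosphorylation protecting it from proteolytic cleavage. Compounds tested once at 100 nM for VEGFR1 and PDGFRA, at 10 μM for ABL and ABL T315I, 1% DMSO final. ATP at previously determined apparent Km.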

[15] = test system: HUVEC; test: In vitro cell proliferation assay (MTT), HUVEC; assay type: cell-based; details: Homo sapiens, read-out: EC50, anti-proliferative activity
Procedure, shortened: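 HUVEC cells were plated at 1×10^4 cells per well in 96-well plates and exposed in duplicate to increasing compound concentrations from 10 nM to 3 μM for 72 hr. Proliferation was then quantified with MTT (3[4,5-dimethylthiazol-2-yl]-2,5-diphenyltetrazolium bromide) to determine anti-proliferative activity.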

[16] = test system: HRMEC cells; test: In vitro cell proliferation assay (MTT), HRMEC; assay type: cell-based; details: 72 h, read-out: EC50, anti-proliferative activity
Experimental: as §1, §2

[17] = test system: HeLa cell line; test: In vitro cell proliferation assay (MTT), HeLa; assay type: cell-based; details: Homo sapiens, 72 hr, MTT, read-out: EC50, anti-proliferative activity
Experimental: as §1, §2

[18] = test system: MDA-MB-231 cell line; test: In vitro cell proliferation assay (MTT), MDA-MB-231; assay type: cell-based; details: Homo sapiens, MDA-MB-231, 72 h; read-out: EC50, anti-proliferative activity
Experimental: as §1, §2

[19] = HUH-6-clone5, HuH6 Clone 5, 72 hr, MTT

T2 sequence (P15056 whole entry): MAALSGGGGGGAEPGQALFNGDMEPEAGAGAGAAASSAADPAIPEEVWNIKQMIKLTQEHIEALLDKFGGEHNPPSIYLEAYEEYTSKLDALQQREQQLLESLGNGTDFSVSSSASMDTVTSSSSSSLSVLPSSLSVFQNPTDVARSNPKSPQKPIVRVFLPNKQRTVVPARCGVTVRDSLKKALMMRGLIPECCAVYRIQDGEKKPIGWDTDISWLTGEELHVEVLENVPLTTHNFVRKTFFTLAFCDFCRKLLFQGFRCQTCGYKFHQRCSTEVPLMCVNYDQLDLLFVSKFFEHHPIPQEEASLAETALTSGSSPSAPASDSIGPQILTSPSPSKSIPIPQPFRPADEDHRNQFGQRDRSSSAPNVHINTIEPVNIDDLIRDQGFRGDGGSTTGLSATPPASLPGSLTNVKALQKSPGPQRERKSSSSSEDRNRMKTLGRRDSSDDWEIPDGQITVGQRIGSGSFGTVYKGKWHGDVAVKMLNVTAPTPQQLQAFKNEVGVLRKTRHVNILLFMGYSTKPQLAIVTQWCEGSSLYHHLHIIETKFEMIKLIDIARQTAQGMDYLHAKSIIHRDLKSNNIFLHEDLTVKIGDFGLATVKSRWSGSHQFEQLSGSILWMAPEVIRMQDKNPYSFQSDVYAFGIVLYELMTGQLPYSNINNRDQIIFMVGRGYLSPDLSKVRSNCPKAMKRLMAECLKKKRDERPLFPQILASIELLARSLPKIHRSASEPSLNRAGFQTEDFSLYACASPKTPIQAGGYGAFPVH
T1 sequence (P21802 22-821): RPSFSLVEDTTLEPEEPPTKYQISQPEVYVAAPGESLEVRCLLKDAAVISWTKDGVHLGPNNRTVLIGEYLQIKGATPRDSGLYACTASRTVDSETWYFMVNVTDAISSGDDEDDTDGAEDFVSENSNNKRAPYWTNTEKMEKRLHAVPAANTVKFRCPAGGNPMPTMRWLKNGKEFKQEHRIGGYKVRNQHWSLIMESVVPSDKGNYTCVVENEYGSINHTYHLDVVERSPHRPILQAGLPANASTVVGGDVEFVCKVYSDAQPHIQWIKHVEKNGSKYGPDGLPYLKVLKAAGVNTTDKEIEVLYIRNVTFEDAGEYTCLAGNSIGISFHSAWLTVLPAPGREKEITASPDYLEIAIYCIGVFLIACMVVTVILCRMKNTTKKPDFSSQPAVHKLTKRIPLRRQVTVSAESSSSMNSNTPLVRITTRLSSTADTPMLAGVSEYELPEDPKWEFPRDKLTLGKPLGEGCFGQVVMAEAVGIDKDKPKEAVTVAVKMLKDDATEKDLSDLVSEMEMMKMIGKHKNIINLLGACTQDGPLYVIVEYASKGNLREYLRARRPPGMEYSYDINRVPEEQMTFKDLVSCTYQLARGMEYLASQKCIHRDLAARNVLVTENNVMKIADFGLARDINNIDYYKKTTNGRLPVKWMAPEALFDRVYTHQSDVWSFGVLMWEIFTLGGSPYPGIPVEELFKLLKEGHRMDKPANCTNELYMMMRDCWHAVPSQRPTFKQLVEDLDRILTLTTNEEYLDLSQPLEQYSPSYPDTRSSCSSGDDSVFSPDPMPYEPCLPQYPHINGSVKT
T3 sequence (P00533 25-1210 T790M/L858R): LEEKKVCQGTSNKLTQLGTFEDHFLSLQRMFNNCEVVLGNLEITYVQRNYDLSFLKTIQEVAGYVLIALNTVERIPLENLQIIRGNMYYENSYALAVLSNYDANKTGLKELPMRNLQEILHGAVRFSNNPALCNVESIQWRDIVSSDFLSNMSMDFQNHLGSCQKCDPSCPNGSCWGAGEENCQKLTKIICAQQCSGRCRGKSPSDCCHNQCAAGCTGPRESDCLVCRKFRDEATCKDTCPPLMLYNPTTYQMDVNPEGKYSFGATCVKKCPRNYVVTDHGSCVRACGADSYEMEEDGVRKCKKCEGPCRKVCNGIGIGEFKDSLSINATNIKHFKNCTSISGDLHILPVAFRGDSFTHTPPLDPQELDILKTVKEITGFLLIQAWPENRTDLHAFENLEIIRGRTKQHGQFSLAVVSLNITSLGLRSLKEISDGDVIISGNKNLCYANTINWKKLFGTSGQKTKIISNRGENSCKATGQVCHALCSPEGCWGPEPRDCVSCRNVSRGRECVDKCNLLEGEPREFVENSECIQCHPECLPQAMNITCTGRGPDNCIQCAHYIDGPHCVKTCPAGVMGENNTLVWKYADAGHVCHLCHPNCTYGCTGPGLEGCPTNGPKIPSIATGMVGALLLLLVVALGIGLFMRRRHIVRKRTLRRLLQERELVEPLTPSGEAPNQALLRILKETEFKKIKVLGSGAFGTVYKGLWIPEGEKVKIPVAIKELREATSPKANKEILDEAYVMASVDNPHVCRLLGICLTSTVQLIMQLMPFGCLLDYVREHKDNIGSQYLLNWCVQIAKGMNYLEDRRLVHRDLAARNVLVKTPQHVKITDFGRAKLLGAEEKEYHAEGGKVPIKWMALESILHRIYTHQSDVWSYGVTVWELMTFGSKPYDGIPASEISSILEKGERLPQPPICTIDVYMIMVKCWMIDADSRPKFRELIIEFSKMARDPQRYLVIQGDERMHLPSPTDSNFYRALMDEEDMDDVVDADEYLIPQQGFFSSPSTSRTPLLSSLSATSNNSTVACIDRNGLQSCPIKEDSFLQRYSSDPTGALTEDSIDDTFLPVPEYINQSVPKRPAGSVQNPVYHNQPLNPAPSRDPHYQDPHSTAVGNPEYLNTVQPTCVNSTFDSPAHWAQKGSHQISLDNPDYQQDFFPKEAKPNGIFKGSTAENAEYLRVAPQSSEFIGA
T5 sequence (P35968 20-1356): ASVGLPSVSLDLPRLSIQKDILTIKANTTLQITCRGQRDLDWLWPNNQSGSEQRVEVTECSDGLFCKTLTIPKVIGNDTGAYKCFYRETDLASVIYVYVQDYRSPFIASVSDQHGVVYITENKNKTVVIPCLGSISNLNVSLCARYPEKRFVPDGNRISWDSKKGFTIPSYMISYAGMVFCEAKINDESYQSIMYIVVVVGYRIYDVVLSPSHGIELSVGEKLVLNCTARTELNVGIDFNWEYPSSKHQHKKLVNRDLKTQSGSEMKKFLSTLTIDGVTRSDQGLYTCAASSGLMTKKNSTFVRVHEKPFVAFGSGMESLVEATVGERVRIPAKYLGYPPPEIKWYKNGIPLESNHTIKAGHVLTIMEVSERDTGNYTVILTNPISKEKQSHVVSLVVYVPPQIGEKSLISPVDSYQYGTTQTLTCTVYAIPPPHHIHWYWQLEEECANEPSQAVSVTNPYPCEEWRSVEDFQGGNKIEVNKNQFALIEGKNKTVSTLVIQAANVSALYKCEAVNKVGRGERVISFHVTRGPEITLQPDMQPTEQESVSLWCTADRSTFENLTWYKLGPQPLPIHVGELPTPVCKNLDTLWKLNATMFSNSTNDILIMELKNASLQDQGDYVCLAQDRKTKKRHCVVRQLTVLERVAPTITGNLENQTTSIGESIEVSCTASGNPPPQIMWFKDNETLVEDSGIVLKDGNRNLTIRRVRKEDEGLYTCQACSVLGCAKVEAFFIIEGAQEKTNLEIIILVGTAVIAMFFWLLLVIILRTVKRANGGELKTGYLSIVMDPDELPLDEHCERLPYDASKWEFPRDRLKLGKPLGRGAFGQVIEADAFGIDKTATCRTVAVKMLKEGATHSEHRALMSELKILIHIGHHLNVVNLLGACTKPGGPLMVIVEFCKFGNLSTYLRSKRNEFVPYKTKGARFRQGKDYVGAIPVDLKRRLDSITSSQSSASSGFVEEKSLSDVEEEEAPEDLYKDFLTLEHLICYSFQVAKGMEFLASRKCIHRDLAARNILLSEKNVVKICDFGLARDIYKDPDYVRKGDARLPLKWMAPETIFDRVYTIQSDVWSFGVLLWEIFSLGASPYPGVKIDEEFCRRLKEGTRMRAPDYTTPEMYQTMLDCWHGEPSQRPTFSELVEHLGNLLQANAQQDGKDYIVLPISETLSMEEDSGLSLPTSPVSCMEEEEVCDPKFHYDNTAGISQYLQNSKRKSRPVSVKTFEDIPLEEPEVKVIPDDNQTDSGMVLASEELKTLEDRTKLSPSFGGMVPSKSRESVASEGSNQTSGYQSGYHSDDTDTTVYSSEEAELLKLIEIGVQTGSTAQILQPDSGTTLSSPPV
T4 sequence (P12931 whole entry): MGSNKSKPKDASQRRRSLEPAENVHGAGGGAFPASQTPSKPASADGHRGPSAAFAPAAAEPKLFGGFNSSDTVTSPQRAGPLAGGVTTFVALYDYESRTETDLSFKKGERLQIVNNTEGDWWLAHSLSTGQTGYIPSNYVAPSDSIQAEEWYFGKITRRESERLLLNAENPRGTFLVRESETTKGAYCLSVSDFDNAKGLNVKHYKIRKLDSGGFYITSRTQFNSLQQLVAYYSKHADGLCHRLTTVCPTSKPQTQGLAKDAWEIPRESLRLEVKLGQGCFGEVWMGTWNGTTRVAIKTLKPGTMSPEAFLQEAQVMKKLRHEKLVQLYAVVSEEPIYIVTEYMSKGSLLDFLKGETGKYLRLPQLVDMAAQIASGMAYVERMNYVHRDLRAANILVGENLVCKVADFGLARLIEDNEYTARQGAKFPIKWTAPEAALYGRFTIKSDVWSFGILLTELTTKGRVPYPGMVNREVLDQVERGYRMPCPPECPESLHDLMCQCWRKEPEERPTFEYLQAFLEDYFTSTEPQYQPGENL

Structure (SMILES) | EC50 ([2]; Huh-7, HuH7, 72 hr, MTT) | inhibition at 0.1 µM [3] | EC50 [4, 19] | inhibition at 0.1 µM [5] | inhibition at 0.1 µM [6] | EC50 ([7]; HepG2, 72 hr, MTT) | inhibition at 0.1 µM [8] | inhibition at 0.1 µM [10] | EC50 ([11]; A549, 72 hr, MTT) | inhibition at 0.1 µM [12] | EC50 ([13]; HuCCT-1, HuCCT1, 72 hr, MTT) | inhibition at 0.1 µM [14] | EC50 ([4]; HUH-6-clone5, 72 h) | EC50 ([1]; NCI-H1975, 72 h) | EC50 ([2]; Huh-7, 72 h) | EC50 ([15]; 72 h) | EC50 ([7]; HepG2, 72 h) | EC50 ([11]; A549, 72 h) | EC50 [16] | also measured
CC(=O)c1cc2cc(NC(=O)c3cc(NC(=O)c4ccc(CN5CCC(N(C)C)C5)c(C(F)(F)F)c4)ccc3C)cnc2[nH]1 (stereo not shown) [OR0782, N-(2-Acetyl-1H-pyrrolo[2,3-b]pyridin-5-yl)-2-methyl-5-[4-(3-dimethylamino-pyrrolidin-1-ylmethyl)-3-trifluoromethyl-benzoylamino]-benzamide] | ≥ 1000 nM | ≥ 50% | ≥ 1000 nM | < 50% | < 50% | ≥ 1000 nM | ≥ 50% | ≥ 50% | ≥ 1000 nM | ≥ 50% | ≥ 1000 nM | ≥ 50% | – | – | – | – | – | – | – | EC50 ([1]; NCI-H1975, H1975, 72 hr, MTT): ≥ 1000 nM; EC50 ([9]; HT-29, HT29, 72 hr, MTT): ≥ 1000 nM; EC50 ([15]; 72 hr, MTT): ≥ 1000 nM
CNC(=O)c1cc2cc(NCc3cc(NC(=O)c4ccc(CN5CCN(C)CC5)cc4)ccc3C)cnc2[nH]1 [OR0753, 5-{2-Methyl-5-[4-(4-methyl-piperazin-1-ylmethyl)-benzoylamino]-benzylamino}-1H-pyrrolo[2,3-b]pyridine-2-carboxylic acid methylamide] | ≥ 1000 nM | < 50% | – | ≥ 50% | ≥ 50% | ≥ 1000 nM | ≥ 50% | ≥ 50% | ≥ 1000 nM | ≥ 50% | ≥ 1000 nM | ≥ 50% | 100 to 1000 nM | – | – | – | – | – | – | EC50 ([15]; 72 hr, MTT): ≥ 1000 nM
CC(=O)c1cc2cc(NC(=O)c3cc(NC(=O)c4ccc(CN5CCN(C)CC5)c(C(F)(F)F)c4)ccc3C)cnc2[nH]1 [OR0781, N-(2-Acetyl-1H-pyrrolo[2,3-b]pyridin-5-yl)-2-methyl-5-[4-(4-methyl-piperazin-1-ylmethyl)-3-trifluoromethyl-benzoylamino]-benzamide] | – | ≥ 50% | ≥ 1000 nM | ≥ 50% | ≥ 50% | ≥ 1000 nM | ≥ 50% | ≥ 50% | ≥ 1000 nM | ≥ 50% | ≥ 1000 nM | ≥ 50% | – | 100 to 1000 nM | 100 to 1000 nM | 100 to 1000 nM | – | – | – | EC50 ([9]; HT-29, HT29, 72 hr, MTT): ≥ 1000 nM
CNC(=O)c1cc2cc(NCc3cc(NC(=O)c4ccc(CN5CCC(N(C)C)C5)c(C(F)(F)F)c4)ccc3C)cnc2[nH]1 (stereo not shown) [OR0752, 5-{5-[4-(3-Dimethylamino-pyrrolidin-1-ylmethyl)-3-trifluoromethyl-benzoylamino]-2-methyl-benzylamino}-1H-pyrrolo[2,3-b]pyridine-2-carboxylic acid methylamide] | – | ≥ 50% | – | ≥ 50% | ≥ 50% | – | ≥ 50% | ≥ 50% | – | ≥ 50% | – | ≥ 50% | 100 to 1000 nM | 100 to 1000 nM | 100 to 1000 nM | ≤ 100 nM | 100 to 1000 nM | 100 to 1000 nM | ≤ 100 nM | EC50 ([9]; HT-29, 72 h): 100 to 1000 nM; EC50 ([13]; HuCCT-1, 72 h): 100 to 1000 nM
CNC(=O)c1cc2cc(NCc3cc(NC(=O)c4ccc(CN5CC[C@H](N(C)C)C5)c(C(F)(F)F)c4)ccc3C)cnc2[nH]1 [OR0813, 5-{5-[4-((S)-3-Dimethylamino-pyrrolidin-1-ylmethyl)-3-trifluoromethyl-benzoylamino]-2-methyl-benzylamino}-1H-pyrrolo-[2,3-b]pyridine-2-carboxylic acid methylamide] | – | ≥ 50% | – | ≥ 50% | – | – | – | ≥ 50% | – | ≥ 50% | – | – | – | – | – | ≤ 100 nM | ≤ 100 nM | ≤ 100 nM | 100 to 1000 nM | EC50 [17]: ≥ 1000 nM; EC50 [18]: 100 to 1000 nM
CNC(=O)c1cc2cc(NCc3cc(NC(=O)c4ccc(CN5CCN(C)CC5)c(C(F)(F)F)c4)ccc3C)cnc2[nH]1 [OR0751, 5-{2-Methyl-5-[4-(4-methyl-piperazin-1-ylmethyl)-3-trifluoromethyl-benzoylamino]-benzylamino}-1H-pyrrolo[2,3-b]pyridine-2-carboxylic acid methylamide] | – | ≥ 50% | – | ≥ 50% | ≥ 50% | – | ≥ 50% | ≥ 50% | – | ≥ 50% | – | ≥ 50% | 100 to 1000 nM | 100 to 1000 nM | ≤ 100 nM | ≤ 100 nM | ≤ 100 nM | 100 to 1000 nM | ≤ 100 nM | EC50 [17]: ≥ 1000 nM; EC50 [18]: ≤ 100 nM; EC50 ([9]; HT-29, 72 h): ≤ 100 nM; EC50 ([13]; HuCCT-1, 72 h): 100 to 1000 nM
CNC(=O)c1cc(Oc2ccc(NC(=O)Nc3ccc(Cl)c(C(F)(F)F)c3)cc2)ccn1 [Sorafenib, reference compound] | 1000 to 3000 nM | – | 1000 to 3000 nM | – | – | 1000 to 3000 nM | – | – | – | – | 1000 to 3000 nM | – | – | – | – | – | – | – | – | –
